Here are results for three compounds from patent publication US5530161A, “Hydroxamic acid based collagenase inhibitors” (priority 1994, dated 1996).

In one test the target is T1, collagenase (Homo sapiens, UniProt P03956).
T1 sequence (P03956 100-469): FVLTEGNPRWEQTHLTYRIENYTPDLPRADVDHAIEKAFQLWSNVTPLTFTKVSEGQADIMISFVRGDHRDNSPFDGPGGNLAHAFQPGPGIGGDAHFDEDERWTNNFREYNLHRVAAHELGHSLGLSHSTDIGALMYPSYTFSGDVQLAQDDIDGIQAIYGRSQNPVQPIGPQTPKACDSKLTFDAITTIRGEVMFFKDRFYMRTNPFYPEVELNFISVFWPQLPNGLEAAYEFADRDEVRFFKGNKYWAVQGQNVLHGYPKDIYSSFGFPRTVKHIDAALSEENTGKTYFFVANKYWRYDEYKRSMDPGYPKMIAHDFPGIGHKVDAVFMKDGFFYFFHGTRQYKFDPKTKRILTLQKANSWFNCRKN
Conditions: for IC50: collagenase, 37°, 16 hours, pH 7.5, 14C collagen.

The target of the next test is stromelysin (Homo sapiens, UniProt P08254). Nature of the test: Stromelysin inhibition activity (14C-acetylated casein digestion, Cawston et al). It counts as biochemical.
stromelysin, sequence (P08254 100-477): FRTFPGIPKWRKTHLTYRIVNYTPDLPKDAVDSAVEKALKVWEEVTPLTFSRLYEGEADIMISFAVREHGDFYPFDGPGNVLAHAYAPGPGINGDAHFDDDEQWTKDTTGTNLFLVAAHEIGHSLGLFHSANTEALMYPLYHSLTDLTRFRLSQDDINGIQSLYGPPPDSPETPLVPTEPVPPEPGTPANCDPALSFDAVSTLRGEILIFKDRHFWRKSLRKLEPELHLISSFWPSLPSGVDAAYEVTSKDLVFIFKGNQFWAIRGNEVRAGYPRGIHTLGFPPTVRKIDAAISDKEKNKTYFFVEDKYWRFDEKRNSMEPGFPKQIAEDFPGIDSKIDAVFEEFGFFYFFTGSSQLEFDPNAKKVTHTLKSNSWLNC

From the text for collagenase: The collagen was acetylated ^14 C collagen prepared by the method of Cawston and Murphy (Methods in Enzymology, 80, 711, 1981), hereby incorporated by reference. The samples were centrifuged to sediment undigested collagen and an aliquot of the radioactive supernatant removed for assay on a scintillation counter as a measure of hydrolysis.

As usually defined, the IC50 is the concentration that gives 50% inhibition. For the compound `CNC(=O)[C@H](Cc1ccccc1)NC(=O)[C@H](CC(C)C)[C@H](CSc1ccccc1)C(=O)NO` [Example 1, [4-(N-Hydroxyamino)-2R-isobutyl-3S-(phenylthiomethyl)-succinyl]-L-phenylalanine-N-methylamide], the IC50 against collagenase turned out to be 20 nM; at stromelysin (stromelysin, 37°, 16 hours, pH 7.5, 14C acetylated casein) it was 10 nM.

Turning to `CNC(=O)[C@H](Cc1ccccc1)NC(=O)[C@H](CC(C)C)[C@H](CSc1cccs1)C(=O)NO` [Example 2, [4-(N-Hydroxyamino)-2R-isobutyl-3S-(thienylthiomethyl)succinyl]-L-phenylalanine-N-methylamide], the “collagenase-inhibiting activity (in words)” value on collagenase (qualitative statement) is recorded as “good”. Further, the “protoglycanase-inhibiting activity (in words)” value at stromelysin (qualitative statement, protoglycanase = stromelysin (b9)) is recorded as “good”. Regarding `CNC(=O)[C@H](Cc1ccccc1)NC(=O)[C@H](CC(C)C)[C@H](CS)C(=O)NO` [Example 5, [4-(N-Hydroxyamino)-2R-isobutyl-3S-(mercaptomethyl)succinyl]-L-phenylalanine-N-methylamide], the IC50 against collagenase is 3 nM.
